Patent US9387221B2, “SDF-1 binding nucleic acids and the use thereof in cancer treatment” (NOXXON Pharma AG, priority 2010, dated 2016)
{PEG40k} = 40 kDa polyethylene glycol

What was measured:
SDF-1 = SDF-1 (Homo sapiens, UniProt P48061); experiment: SDF-1 dependent chemotaxis of primary chronic lymphocytic leukemia cells; type: cell-based
stromal MS-5 cells = experiment: Viability of stromal MS-5 cells in the coculture; type: cell-based, murine
Protocol: The murine stromal cell line MS-5 (ACC 441) was purchased from the DSMZ, the Multiple Myeloma cell line RPMI8226 (CCL-155) was purchased from the ATCC. The Multiple Myeloma cell line RPMI8226 was maintained in RPMI medium 1640 GlutaMAX (Invitrogen) supplemented with 10% FBS (Biochrom) and penicillin-streptomycin, the MS-5 cells were cultured in MEM alpha GlutaMAX (Invitrogen) with 10% FBS and penicillin-streptomycin. For chemosensitization coculture experiments stromal MS-5 cells were seeded the day before onto 24-well plates (the inner eight wells) at a concentration of 8×10^4/mL/well in MEM alpha GlutaMAX medium (+10% FBS) and incubated at 37° C. in 5% CO2. The confluent stromal cell layer was washed and 0.5 mL RPMI medium 1640 (+1% FBS) was added to the wells. SDF-1 binding […] NOX-A12 or revNOX-A12 was subsequently added to the wells to a final concentration of 100 nM and incubated for four hours. 3.5×10^5 RPMI8226 cells in RPMI medium 1640 (+1% FBS) were added to the stromal cell layer. Four hours later, 1 μ[…] (Sigma Aldrich) was added to the cells when indicated. After 40 hours of incubation the cells were collected in 15 mL tubes, first the supernatant was harvested and then the attached cells were trypsinized including MS-5 cells. […] Cell viability and cell number were determined by Flow Cytometry using the Guava EasyCyte 6HT/2L (Millipore).

Chain of SDF-1 (P48061 22-89 limits assumed): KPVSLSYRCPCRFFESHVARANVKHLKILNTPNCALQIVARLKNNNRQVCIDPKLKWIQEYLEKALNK

Substance: 5′-40 kDa-PEG-GCGUGGUGUGAUCUAGAUGUAUUGGCUGAUCCUAGUCAGGUACGC (5' {PEG40k}, sugars by position and backbone not given here) [NOX-A12]
- block of SDF-1 dependent chemotaxis (SDF-1): effectively blocked
- viability of stromal MS-5 cells (stromal MS-5 cells): neither affected
